What all share (format): cell-based
One data set concerns Ca Ski (cervical cancer). In words: cells. To be noted: for IC50: Homo sapiens, Ca-Ski, MTT, 72 h, mean ± SD of three replicates; for IC50 / SI (selectivity index) Ca Ski: isolated compounds; for SI (selectivity index) Ca Ski: IC50 HUVEC / IC50 Ca Ski. On the procedure:
(§1) The human cell lines MCF-7 (breast cancer), Ca Ski (cervical cancer), and HT-29 (colon cancer) were cultured as monolayer in RPMI 1640 growth media. HUVEC (human umbilical vein endothelial cells) and PC-3 (prostate cancer) cells were cultured in DMEM. All cells were purchased from the American Tissue Culture Collection (ATCC, USA) except for human umbilical vein endothelial cells (HUVEC) which were obtained from ScienCell Research Laboratories (Carlsbad, CA). All the media were supplemented with 10% v/v foetal bovine serum (FBS), 100 μg/mL penicillin/streptomycin, and 50 μg/mL amphotericin B. The cells were cultured in a 5% CO2 incubator at 37°C.
(§2) Cell viability was investigated using 3-(4, 5-dimethylthiazol-2-yl)-2, 5-diphenyltetrazolium bromide (MTT) assay. Cells were detached from the […] tissue culture flask when it achieved 80% confluency. The detached cells were pellet by centrifugation (1,000 rpm; 5 minutes). Cells (3.0 × 10^4 cells/mL) were seeded onto a 96-well microtiter plate (Nunc). The cells were incubated at 37°C CO2 incubator for 24 h to give adherent cells. The test compounds (1–100 μg/mL) were added onto the 96-well microtiter plate containing adherent cells. The untreated cells were incubated in 10% media containing 0.5% DMSO (without addition of any test compounds/extracts). This mixture was regarded as the negative control whereas doxorubicin as the positive control. The plates were incubated for 72 h at 37°C in a 5% CO2 incubator. After 72 h, the media were removed and 100 μL of fresh medium and 20 μL of MTT (Sigma, filter sterile, 5 mg/mL) were added to each well and further incubated for 4 hours (37°C) after which the media were substituted with 150 μL DMSO. The 96-well microtiter plates were then agitated at room temperature onto an incubator shaker to dissolve the formazan crystals. The absorbance (A) of the content of the plates was measured at 540 nm using a microplate reader. The percentage of inhibition of each test sample was calculated according to the following formula: Percentage of inhibition (%) = (A control − A sample)/A control × 100%. The average of three replicates was then obtained. The IC50 for each extract was extrapolated from the graphs of the percentage inhibition versus concentration of test agents. Cytotoxicity of each test agent is expressed as IC50 value. The IC50 value is the concentration of test agents that cause 50% inhibition or cell death, averaged from the three experiments. The selectivity index (SI) was also calculated as described by using the ratio between IC50 of the extract or compounds on normal cell lines (HUVEC) and IC50 of the tested extract or compounds on cancerous cell lines. Selectivity index (SI) values equal or greater than three were considered to have a high selectivity towards cancerous cells. An SI value denotes the selectivity of the sample to the tested cell lines.

The test system of data set [1] is HUVEC (human umbilical vein endothelial cells). Nature of the data set: cells. To be noted: Homo sapiens, HUVEC; isolated compounds; MTT, 72 h; normal cells. On the procedure: as §1, §2
For a further data set, the system named is MCF-7 (breast cancer). In words: cells. The conditions noted are these: for IC50: Homo sapiens, MCF7, MTT, 72 h, mean ± SD of three replicates; for IC50 / SI (selectivity index) MCF-7: isolated compounds; for SI (selectivity index) MCF-7: IC50 HUVEC / IC50 MCF-7. How it is done:
as §1, §2

The test system of a further data set is PC-3 (prostate cancer). In words: MTT cytotoxicity assay, PC-3. To be noted: for IC50: Homo sapiens, MTT, 72 h, mean ± SD of three replicates; for IC50 / SI (selectivity index) PC-3: isolated compounds; for antiproliferative/cytotoxic activity against PC-3 (in words): MTT assay; for SI (selectivity index) PC-3: IC50 HUVEC / IC50 PC-3. How it is done: as §1, §2
For orientation: Tetrazolium dyes change colour on reduction, which living cells bring about.

Another data set relates to HT-29 (colon cancer). Nature of the data set: MTT cytotoxicity assay, HT-29. The conditions noted are these: for IC50: Homo sapiens, HT-29, MTT, 72 h, mean ± SD of three replicates; for IC50 / SI (selectivity index) HT-29: isolated compounds; for antiproliferative/cytotoxic activity against HT-29 (in words): MTT assay; for SI (selectivity index) HT-29: IC50 HUVEC / IC50 HT-29. On the procedure:
as §1, §2

Values after ≈ are worked out from the molar mass of the structure shown. Bounds are passed on as bounds.

In the case of `C=C1CC[C@H]2C(C)(C)CCC[C@]2(C)[C@H]1C/C=C(/C=O)CC=O` [Compound 1, labda-8(17),12 diene-15,16 dial], in the data set on Ca Ski (cervical cancer), the IC50 turned out to be 14.5 ± 0.1 µg/mL (≈ 47.9 µM) and the “SI (selectivity index) Ca Ski” value came to 3.1. In addition, the “antiproliferative/cytotoxic activity against Ca Ski (in words)” value in the data set on Ca Ski (cervical cancer) (MTT assay) was “moderate cytotoxicity”. This compound gave an IC50 in data set [1] of 45.3 ± 1.9 µg/mL (≈ 150 µM). In the data set with MCF-7 (breast cancer), the IC50 was 16.3 ± 0.2 µg/mL (≈ 53.9 µM) and the “SI (selectivity index) MCF-7” value amounted to 2.8. The “antiproliferative/cytotoxic activity against MCF-7 (in words)” value with MCF-7 (breast cancer) (MTT assay) is recorded as “moderate cytotoxicity”. Further, in the data set with PC-3 (prostate cancer), inhibition was half-maximal at 26.3 ± 2.4 µg/mL (≈ 87 µM) (IC50), the “antiproliferative/cytotoxic activity against PC-3 (in words)” value was “moderate inhibitory activity” and the “SI (selectivity index) PC-3” value is listed as 1.7. For the same compound, in the data set with HT-29 (colon cancer), the concentration for half-maximal inhibition (IC50) turned out to be 21.5 ± 3.1 µg/mL (≈ 71.1 µM), the “antiproliferative/cytotoxic activity against HT-29 (in words)” value was “moderate inhibitory activity” and the “SI (selectivity index) HT-29” value is given as 2.1.
Regarding `CC(C)=C1CC(=O)[C@@H](C)CC/C=C(\C)CC1=O` [Compound 2, dehydrocurdione], in the data set with Ca Ski (cervical cancer), the IC50 worked out at 21.7 ± 1.1 µg/mL (≈ 92.6 µM) and the “SI (selectivity index) Ca Ski” value came out at 1.1. Further, half-maximal inhibition in data set [1] (IC50) was put at 24 ± 2.1 µg/mL (≈ 102 µM). Also, in the data set on MCF-7 (breast cancer), the IC50 was found to be 33 ± 1.1 µg/mL (≈ 141 µM) and the “SI (selectivity index) MCF-7” value amounted to 0.7. In the data set on PC-3 (prostate cancer), the IC50 came to 19.1 ± 2.8 µg/mL (≈ 81.5 µM), the “antiproliferative/cytotoxic activity against PC-3 (in words)” value is “moderate inhibitory activity” and the “SI (selectivity index) PC-3” value was 1.3. For the same compound, in the data set with HT-29 (colon cancer), the IC50 came out at 22.7 ± 2.4 µg/mL (≈ 96.9 µM), the “antiproliferative/cytotoxic activity against HT-29 (in words)” value is recorded as “moderate inhibitory activity” and the “SI (selectivity index) HT-29” value worked out at 1.1.
Consider `CC1=CC2C(=C(C)C)C(=O)C=C(C)C2CC1` (centres unmarked) [Compound 4, comosone II], for which the IC50 in the data set on Ca Ski (cervical cancer) was 76 ± 1.2 µg/mL (≈ 351 µM); with MCF-7 (breast cancer), more than 100 µg/mL.
With `CC1=CC(=O)C(=C(C)C)C[C@H]2[C@H]1CC[C@]2(C)O` [Compound 6, procurcumenol], in the data set on Ca Ski (cervical cancer), the IC50 worked out at 62.4 ± 0.3 µg/mL (≈ 266 µM) and the “SI (selectivity index) Ca Ski” value is 0.3. Half-maximal inhibition in data set [1] (IC50) was put at 16.3 ± 1 µg/mL (≈ 69.6 µM). For the same compound, in the data set on MCF-7 (breast cancer), the IC50 is 16.1 ± 2.2 µg/mL (≈ 68.7 µM) and the “SI (selectivity index) MCF-7” value amounted to 1.0. In the data set with PC-3 (prostate cancer), the IC50 was 13.3 ± 1.7 µg/mL (≈ 56.8 µM), the “antiproliferative/cytotoxic activity against PC-3 (in words)” value is listed as “good cytotoxic effect” and the “SI (selectivity index) PC-3” value came out at 1.2. Moreover, in the data set on HT-29 (colon cancer), the IC50 was 15.5 ± 2.3 µg/mL (≈ 66.1 µM), the “antiproliferative/cytotoxic activity against HT-29 (in words)” value is “good cytotoxic effect” and the “SI (selectivity index) HT-29” value amounted to 1.1.
As to `CC(C)=C1C/C=C(\C)CC/C=C(\C)CC1=O` [Compound 7, germacrone], in the data set with Ca Ski (cervical cancer), the IC50 worked out at 39.3 ± 1.2 µg/mL (≈ 180 µM) and the “SI (selectivity index) Ca Ski” value was 1.9. The same compound registered an IC50 in data set [1] of 73.7 ± 0.3 µg/mL (≈ 338 µM). Moreover, in the data set on MCF-7 (breast cancer), half-maximal inhibition (IC50) required 59.1 ± 2.9 µg/mL (≈ 271 µM) and the “SI (selectivity index) MCF-7” value was found to be 1.2. Further, in the data set with PC-3 (prostate cancer), the IC50 is 55.2 ± 4.9 µg/mL (≈ 253 µM) and the “SI (selectivity index) PC-3” value was found to be 1.3. Moreover, in the data set with HT-29 (colon cancer), the IC50 worked out at 42.9 ± 4.1 µg/mL (≈ 196 µM) and the “SI (selectivity index) HT-29” value stood at 1.7.
Consider `CC1=CC2(O)OC3(CC2=C(C)C)C(C)CCC13` (centres unmarked) [Compound 10, 9-isopropylidene-2,6-dimethyl-11-oxatricyclo[6.2.1.0^1,5]undec-6-en-8-ol], for which, in the data set on Ca Ski (cervical cancer), the IC50 is more than 100 µg/mL and the “SI (selectivity index) Ca Ski” value is less than 0.7. For the same compound, the IC50 in data set [1] stood at 71.7 ± 6.1 µg/mL (≈ 306 µM). Besides, in the data set with MCF-7 (breast cancer), the IC50 was more than 100 µg/mL and the “SI (selectivity index) MCF-7” value is on record as less than 0.7.
`C/C1=C\Cc2c(C)coc2C/C(C)=C/CC1` [Compound 11, furanodiene] returned an IC50 in data set [1] of 40.9 ± 2.6 µg/mL (≈ 189 µM). In the data set with MCF-7 (breast cancer), half-maximal inhibition (IC50) was put at 36.5 ± 2.6 µg/mL (≈ 169 µM) and the “SI (selectivity index) MCF-7” value is 1.1. In the data set on PC-3 (prostate cancer), the IC50 was 39.5 ± 4.5 µg/mL (≈ 183 µM) and the “SI (selectivity index) PC-3” value is 1.0. In the data set with HT-29 (colon cancer), the IC50 is 47.2 ± 4.4 µg/mL (≈ 218 µM) and the “SI (selectivity index) HT-29” value is 0.9.
In turn, `CC1=CCCC2(C)OC2CC(=C(C)C)C(=O)C1` (centres unmarked) [Compound 12, germacrone-4,5-epoxide] displayed an IC50 in data set [1] of 48.4 ± 4.7 µg/mL (≈ 207 µM). In the data set with MCF-7 (breast cancer), the IC50 amounted to 37.2 ± 4 µg/mL (≈ 159 µM) and the “SI (selectivity index) MCF-7” value is given as 1.3. Besides, in the data set with PC-3 (prostate cancer), the IC50 came to 43.9 ± 7.2 µg/mL (≈ 187 µM) and the “SI (selectivity index) PC-3” value was 1.1. In addition, in the data set with HT-29 (colon cancer), the midpoint of inhibition, the IC50, lay at 39.6 ± 4.6 µg/mL (≈ 169 µM) and the “SI (selectivity index) HT-29” value was found to be 1.2.

What is called IC50 is the midpoint of a concentration-inhibition curve. A low value points to higher potency.
